Columns and labels:
[1] = system: VEGF induced increases in intracellular calcium levels in HUVEC (human umbilical vein endothelial cells); assay: VEGF Stimulated Ca++ Signal in vitro (FLIPR); type: cell-based; conditions: VEGF 5 ng/mL; for IC50: 0.01 to 10.0 μM
How it was run: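 HUVEC loaded with Fluo-4 (45 min, 37° C.), washed, then pre-incubated 30 min with compound (10 μM single dose or 0.01–10.0 μM; 0.1% DMSO) before 5 ng/mL VEGF. Fluorescence at 516 nm read by FLIPR; IC50 from % inhibition of max-min VEGF response.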

[2] = target: T1, cytoplasmic domain of the human VEGF receptor (VEGFR-2) (Homo sapiens, UniProt P35968); assay: KDR Assay; type: biochemical; conditions: His-VEGFR-2; 3.6 μM ATP
T1 construct: The cytoplasmic domain of the human VEGF receptor (VEGFR-2) was expressed as a Histidine-tagged fusion protein; Histidine tag
How it was run: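 His-tagged human VEGFR-2 cytoplasmic domain from baculovirus-infected insect cells, acting on poly-Glu-Tyr (4:1)-coated plates with 3.6 μM ATP in Hepes pH 7.4 with MgCl2/MnCl2 and 5% final DMSO, 10 min at 25 °C. Phosphotyrosine detected by peroxidase-conjugated antibody ELISA at 492 nm; IC50 from blank-subtracted OD versus concentration.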

T1 sequence (P35968 786-1356): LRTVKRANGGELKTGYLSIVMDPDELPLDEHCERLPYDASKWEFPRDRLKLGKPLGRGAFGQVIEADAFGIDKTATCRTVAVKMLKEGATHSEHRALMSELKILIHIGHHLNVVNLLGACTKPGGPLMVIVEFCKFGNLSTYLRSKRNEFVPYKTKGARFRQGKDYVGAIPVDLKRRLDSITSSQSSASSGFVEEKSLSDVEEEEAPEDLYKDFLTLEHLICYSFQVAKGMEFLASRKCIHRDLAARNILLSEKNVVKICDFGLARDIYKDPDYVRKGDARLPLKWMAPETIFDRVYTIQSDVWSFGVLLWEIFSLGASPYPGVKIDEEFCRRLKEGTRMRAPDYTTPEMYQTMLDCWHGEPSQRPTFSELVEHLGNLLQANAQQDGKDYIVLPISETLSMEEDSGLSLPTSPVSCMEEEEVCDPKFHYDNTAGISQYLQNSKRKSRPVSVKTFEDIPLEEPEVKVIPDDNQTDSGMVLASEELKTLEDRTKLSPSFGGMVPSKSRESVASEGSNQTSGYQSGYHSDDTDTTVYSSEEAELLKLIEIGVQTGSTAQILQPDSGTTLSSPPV

Row | IC50 [2] | SMILES | inhibition at 10 µM ([1]; Homo sapiens) | IC50 ([1]; Homo sapiens) | IC50 [1]
1 | 660 nM | Cc1cccc2c1C(=CNc1cccc(S(=O)(=O)NCCCO)c1)C(=O)N2 [Example 194, N-(3-Hydroxy-propyl)-3-[(4-methyl-2-oxo-1,2-dihydro-indol-3-ylidenemethyl)-amino]-benzenesulfonamide] | 96.9% | 2670 nM | –
2 | 960 nM | O=C1Nc2ccccc2C1=CNc1ccc(N2CCOCC2)c(C(=O)O)c1 [Example 195, 2-Morpholin-4-yl-5-[(2-oxo-1,2-dihydro-indol-3-ylidenemethyl)-amino]-benzoic acid] | 91.1% | 4670 nM | –
3 | 50 nM | Cc1cccc2c1C(=CNc1ccc(C(=S)N3CCOCC3)cc1)C(=O)N2 [Example 196, 4-Methyl-3-{[4-(1-morpholin-4-yl-methanethiol)-phenylamino]-methylene}-1,3-dihydro-indol-2-one] | 73.1% | ≤ 1000 nM | 770 nM
4 | 90 nM | Cc1cccc2c1C(=CNc1ccc(S(=O)(=O)NCCO)cc1)C(=O)N2 [Example 197, N-(2-Hydroxy-ethyl)-4-[(4-methyl-2-oxo-1,2-dihydro-indol-3-ylidenemethyl)-amino]-benzenesulfonamide] | 98.1% | – | –
5 | 470 nM | O=C1Nc2ccccc2C1=CNc1ccc(OCCCCl)cc1 [Example 198, 3-{[4-(3-Chloro-propoxy)-phenylamino]-methylene}-1,3-dihydro-indol-2-one] | 56.3% | 7920 nM | –
6 | 740 nM | O=C1Nc2ccccc2C1=CNc1ccc(OCCCI)cc1 [Example 200, 3-{[4-(3-Iodo-propoxy)-phenylamino]-methylene}-1,3-dihydro-indol-2-one] | 75.2% | 3480 nM | –
7 | 170 nM | Cc1cccc2c1C(=CNc1cccc(N)c1)C(=O)N2 [Example 210, 3-[(3-Amino-phenylamino)-methylene]-4-methyl-1,3-dihydro-indol-2-one] | 97.4% | – | –
8 | 500 nM | Cc1ccc(NC=C2C(=O)Nc3ccccc32)cc1N [Example 212, 3-[(3-Amino-4-methyl-phenylamino)-methylene]-1,3-dihydro-indol-2-one] | 96.5% | ≤ 1000 nM | 820 nM
9 | 150 nM | Cc1ccc(NC=C2C(=O)Nc3cccc(C)c32)cc1N [Example 213, 3-[(3-Amino-4-methyl-phenylamino)-methylene]-4-methyl-1,3-dihydro-indol-2-one] | 95% | ≤ 1000 nM | 650 nM
10 | 280 nM | CN1CCN(CCCOc2ccc(NC=C3C(=O)Nc4ccccc43)cc2)CC1 [Example 217, 3-({4-[3-(4-Methyl-piperazin-1-yl)-propoxy]-phenylamino}-methylene)-1,3-dihydro-indol-2-one] | 97.7% | ≤ 1000 nM | 860 nM
11 | 470 nM | COc1ccc(NC=C2C(=O)Nc3ccc(F)cc32)cc1 [Example 222, 5-Fluoro-3-[(4-methoxy-phenylamino)-methylene]-1,3-dihydro-indol-2-one] | 48.8% | – | –
12 | 2270 nM | O=C(O)Cc1ccc(NC=C2C(=O)Nc3ccccc32)cc1 [Example 224, 3-[(4-Carboxymethylphenylamino)-methylene]-1,3-dihydro-indol-2-one] | 56.2% | 6310 nM | –
13 | 290 nM | O=C1Nc2ccccc2C1=CNc1ccc(OCCCN2CCSCC2)cc1 [Example 225, 3-{[4-(3-Thiomorpholin-4-yl-propoxy)-phenylamino]-methylene}-1,3-dihydro-indol-2-one] | 95.7% | ≤ 1000 nM | 560 nM
14 | 50 nM | Cc1cccc2c1C(=CNc1ccc(N3CCOCC3)cc1)C(=O)N2 [Example 227, 4-Methyl-3-[(4-morpholin-4-yl-phenylamino)-methylene]-1,3-dihydro-indol-2-one] | 85.9% | – | –
15 | 80 nM | O=C1Nc2cc(F)ccc2C1=CNc1ccc(N2CCOCC2)cc1 [Example 228, 6-Fluoro-3-[(4-morpholin-4-yl-phenylamino)-methylene]-1,3-dihydro-indol-2-one] | 97.2% | – | –
16 | 80 nM | CN1CCN(c2ccc(NC=C3C(=O)Nc4cc(F)ccc43)cc2)CC1 [Example 230, 6-Fluoro-3-{[4-(4-methyl-piperazin-1-yl)-phenylamino]-methylene}-1,3-dihydro-indol-2-one] | 96.4% | – | –

Row | IC50 [2] | SMILES | inhibition at 10 µM ([1]; Homo sapiens) | IC50 ([1]; Homo sapiens) | IC50 [1]
17 | 160 nM | CCN(CC)CCCOc1ccc(NC=C2C(=O)Nc3ccc(Cl)cc32)cc1 [Example 232, 5-Chloro-3-{[4-(3-diethylamino-propoxy)-phenylamino]-methylene}-1,3-dihydro-indol-2-one] | 97.1% | ≤ 1000 nM | 860 nM
18 | 190 nM | CCN(CC)CCCOc1ccc(NC=C2C(=O)Nc3ccc(F)cc32)cc1 [Example 233, 3-{[4-(3-Diethylamino-propoxy)-phenylamino]-methylene}-5-fluoro-1,3-dihydro-indol-2-one] | 96.9% | – | –
19 | 970 nM | O=C1Nc2ccc([N+](=O)[O-])cc2C1=CNc1ccc(N2CCOCC2)cc1 [Example 236, 3-[(4-Morpholin-4-yl-phenylamino)-methylene]-5-nitro-1,3-dihydro-indol-2-one] | 7.2% | – | –
20 | 710 nM | N#Cc1ccc2c(c1)C(=CNc1ccc(N3CCOCC3)cc1)C(=O)N2 [Example 237, 3-[(4-Morpholin-4-yl-phenylamino)-methylene]-2-oxo-2 ,3-dihydro-1 h-indole-5-carbonitrile] | 36.4% | – | –
21 | 230 nM | O=C1Nc2ccc(F)cc2C1=CNc1ccc(OCCCN2CCCCC2)cc1 [Example 240, 5-Fluoro-3-{[4-(3-piperidin-1-yl-propoxy)-phenylamino]-methylene}-1,3-dihydro-indol-2-one] | 98.3% | – | –
22 | 130 nM | O=C1Nc2ccc(Cl)cc2C1=CNc1ccc(OCCCN2CCCCC2)cc1 [Example 241, 5-Chloro-3-{[4-(3-piperidin-1-yl-propoxy)-phenylamino]-methylene}-1,3-dihydro-indol-2-one] | 95.8% | 1010 nM | –
23 | 70 nM | Cc1cccc2c1C(=CNc1ccc(NCCN3CCOCC3)cc1)C(=O)N2 [Example 242, 4-Methyl-3-{[4-(2-morpholin-4-yl-ethylamino)-phenylamino]-methylene}-1,3-dihydro-indol-2-one] | 95.8% | – | –
24 | 190 nM | O=C1Nc2ccc(F)cc2C1=CNc1ccc(NCCN2CCOCC2)cc1 [Example 244, 5-Fluoro-3-{[4-(2-morpholin-4-yl-ethylamino)-phenylamino]-methylene}-1,3-dihydro-indol-2-one] | 96% | – | –
25 | 140 nM | O=C1Nc2ccc(Cl)cc2C1=CNc1ccc(NCCN2CCOCC2)cc1 [Example 245, 5-Chloro-3-{[4-(2-morpholin-4-yl-ethylamino)-phenylamino]-methylene}-1,3-dihydro-indol-2-one] | 95.5% | – | –
26 | 630 nM | CCN(CC)CCCOc1ccc(NC=C2C(=O)Nc3ccccc32)cc1F [Example 248, 3-{[4-(3-Diethylamino-propoxy)-3-fluoro-phenylamino]-methylene}-1,3-dihydro-indol-2-one] | – | ≤ 1000 nM | 710 nM
27 | 440 nM | O=C1Nc2cccc(F)c2C1=CNc1ccc(OCCCN2CCCCC2)cc1 [Example 255, 4-Fluoro-3-{[4-(3-piperidin-1-yl-propoxy)-phenylamino]-methylene}-1,3-dihydro-indol-2-one] | – | 1300 nM | –
28 | 190 nM | Cc1cccc2c1C(=CNc1ccc(CN3CCCCC3)cc1)C(=O)N2 [Example 256, 4-Methyl-3-[(4-piperidin-1-ylmethyl-phenylamino)-methylene]-1,3-dihydro-indol-2-one] | – | ≤ 1000 nM | 670 nM
29 | 510 nM | O=C1Nc2cccc(F)c2C1=CNc1ccc(CN2CCCCC2)cc1 [Example 257, 4-Fluoro-3-[(4-piperidin-1-ylmethyl-phenylamino)-methylene]-1,3-dihydro-indol-2-one] | – | 1630 nM | –
30 | 560 nM | O=C1Nc2ccc(F)cc2C1=CNc1ccc(CN2CCCCC2)cc1 [Example 258, 5-Fluoro-3-[(4-piperidin-1-ylmethyl-phenylamino)-methylene]-1,3-dihydro-indol-2-one] | – | ≤ 1000 nM | 720 nM
31 | 300 nM | O=C1Nc2ccc(Cl)cc2C1=CNc1ccc(CN2CCCCC2)cc1 [Example 260, 5-Chloro-3-[(4-piperidin-1-ylmethyl-phenylamino)-methylene]-1,3-dihydro-indol-2-one] | – | ≤ 1000 nM | 880 nM

Row | SMILES | IC50 [2] | inhibition at 10 µM ([1]; Homo sapiens) | IC50 ([1]; Homo sapiens) | IC50 [1]
32 | O=C1Nc2ccccc2C1=CNc1ccc(OCCCCCl)cc1 [Example 199, 3-{[4-(4-Chloro-butoxy)-phenylamino]-methylene}-1,3-dihydro-indol-2-one] | 290 nM | 32.4% | – | –
33 | O=C1Nc2ccccc2C1=CNc1ccc(OCCCCN2CCSCC2)cc1 [Example 226, 3-{[4-(4-Thiomorpholin-4-yl-butoxy)-phenylamino]-methylene}-1,3-dihydro-indol-2-one] | 280 nM | 98% | ≤ 1000 nM | 700 nM

Source: patent US20030225152A1, “3-(Arylamino)methylene-1, 3-dihydro-2h-indol-2-ones as kinase inhibitors” (priority 2001, published 2003)
